# Test results reported in patent publication US20250205173A1, “DERMAL AND TRANSDERMAL ADMINISTRATION OF TREPROSTINIL AND SALTS THEREOF” (CORSAIR PHARMA, INC., priority 2019, published 2025).
# Assays:
# [1] = In vitro skin permeability assay, vertical Franz diffusion cell; assay type: in vitro ADME; conditions: human epidermis from different donors, 32° C., N=4 per donor
# Procedure: A skin permeability assay was performed using a vertical Franz diffusion cell having a diffusion area of 0.64 cm^2 and a volume of 7.5 mL. The assay was conducted at 32° C. with continuous stirring. Heat-separated human cadaver epidermis was used in the assay, the epidermis being stored at −20° C. after the heat-stripping procedure. The human epidermis was thawed prior to being mounted on the diffusion cell. Treprostinil was applied on the skin, and the diffusion cell was closed by screw-cap. At various time intervals, whole medium or receptor medium was replaced by fresh medium. Part of the collected medium was used to calculate the cumulative skin permeability of treprostinil at 72 hours. The skin permeability of treprostinil was evaluated using human epidermis from different donors. N=4 replicates were performed for treprostinil tested on human epidermis from a particular donor.
# [2] = Skin irritation study of treprostinil reservoir-type transdermal patch, Draize scale; assay type: in vivo, Göttingen Minipigs; design: key to Edema score: 0: No edema; 1: Very slight edema (barely perceptible); 2: Slight edema (edges of area well defined by definite raising); 3: Moderate edema (raised about 1 mm); 4: Severe edema (raised >1 mm and extending beyond area of exposure); key to Erythema score: 0: No erythema; 1: Very slight erythema (barely perceptible); 2: Well-defined erythema; 3: Moderate to severe erythema; 4: Severe erythema (beet redness) to slight eschar formation (injuries in depth); conditions: for Edema score / Erythema score: 10 mg patch
# Procedure: The pig is frequently used in studies involving dermal or transdermal administration of a drug because the skin of the pig is very similar to human skin. Skin irritation following transdermal administration of treprostinil from a reservoir-type transdermal patch was assessed in Göttingen Minipigs® (Marshall BioResources, North Rose, New York). The treprostinil-containing reservoir transdermal patch was a 32 cm^2 circular patch with a 6 cm^2 gel-sealed area and a 26 cm^2 peripheral skin-adhesive area. The placebo reservoir transdermal patch was a 39 cm^2 oval patch with a 12 cm^2 gel-sealed area and a 27 cm^2 peripheral skin-adhesive area. The reservoir of the patches comprised a gel composed of hydroxypropyl cellulose and containing ethanol, isopropyl myristate and 10 mg treprostinil or no active agent for the placebo patch. The reservoir was packaged by heat seal between a backing layer composed of metalized polyester/ethylene-vinyl acetate and a semi-permeable microporous membrane composed of polyethylene. A transparent release liner that protected the gel reservoir area and the peripheral adhesive area was peeled off immediately prior to patch application. The patches had the structure of the patch depicted in FIG. 1. To facilitate patch application (dosing) and to ensure animal safety during the dosing procedure, the minipigs were sedated with the anesthetic Telazol, if necessary, via intramuscular injection at an initial dose of 3-6 mg/kg. Any use of Telazol is indicated in the study data. Both the treprostinil-containing and placebo transdermal patches were applied to the dorsal surface of each of three female Göttingen Minipigs® weighing about 15-25 kg and were left in place for 24 hr. The dosing sites (the entire flank on both sides of the dorsal midline, caudal to the scapula) were carefully clipped with an electric clipper on the day prior to application of the patches and then were carefully washed with room temperature (RT) saline to remove dirt and debris. The prepared area was large enough to accommodate several patches. The dosing sites then were carefully shaved smooth with a razor while not causing any nick or cut. RT saline, but no shaving cream, could be used to assist shaving. The dosing sites were then wrapped with bandaging that was secured with a non-irritating, semi-occlusive tape (e.g., Elastikon tape). The minipigs were then fitted with a jacket. On the day of application of the patches, the jacket and wrapping were removed from the minipigs. The dosing sites were visually inspected to confirm the absence of any abrasion or obvious dermal pathology, and were gently cleaned with an isopropanol wipe and were then allowed to air-dry for at least 5 min. The patches were applied to areas of the skin without any abrasion or obvious dermal pathology by applying firm finger pressure to the peripheral adhesive area of the patches to ensure firm adherence of the peripheral area to the skin. To prevent detachment of the patches, TegadermTM dressing (or an equivalent transparent adhesive dressing, such as PatchProtectTM dressing) was applied over the patches, extending at least 2 inches beyond the edges of the patches and adhering to the peripheral area of the patches and to the skin surrounding the patches. The sites of patch application were wrapped with gauze or […] bandaging (or equivalent) that was secured with a non-irritating, semi-occlusive tape (e.g., Elastikon tape). The minipigs were then fitted with a jacket to prevent patch disturbance. The patches were kept in place at the dosing sites for 24 hr. […] Photographs of the sites of patch application were taken just prior to patch removal, following patch removal, and at 2 (±15 min), 24 (±1 hr), 48, 72, 96, 120, 144 and 168 hours after patch removal. The following scores are based on the Draize scale for scoring skin irritation [J. Draize et al., J. Pharmacol. Exp. Ther., 82:377-390 (1944)]. [table] [table]
# [3] = Pharmacokinetics of transdermally delivered treprostinil from reservoir-type patch; conditions: Göttingen, minipig, in vivo, four patches, total 160 mg treprostinil, in place 72 hr, two male minipigs
# Description: Pharmacokinetics (PK) following transdermal administration of treprostinil from a reservoir-type transdermal patch was studied in Göttingen Minipigs® (Marshall BioResources). The treprostinil-containing reservoir transdermal patch was a 39 cm^2 oval patch with a 12 cm^2 gel-sealed area and a 27 cm^2 peripheral skin-adhesive area. […] Naïve male Göttingen Minipigs® about 6 months of age at receipt and weighing about 23 kg at patch application were used in the PK study. To facilitate application of the transdermal patch, the minipigs were sedated with Telazol at 3 mg/kg via intramuscular injection. Prior to patch application the dosing sites on the minipigs were prepared similarly as described in Example 2, and patch application was performed similarly as described in Example 2 except that bandaging was reapplied to the sites of patch application once a day. Four transdermal patches containing a total of 160 mg treprostinil were applied at the same time to the dorsal surface of each of two minipigs and were left in place for 72 hr. Blood samples were collected within 1 hr prior to application of the patches; at 3, 6, 12, 24, 48 and 72 hours after application of the patches; and at 0.167, 0.5, 1, 2, 4 and 6 hours after removal of the patches.
# [4] = cited from earlier work
# [5] = cited from earlier work; remark: listed apart in the source
# [6] = minipig 601, 2 hr post patch removal, 24 hr
# [7] = minipig 601, 24 hr post patch removal, 24 hr
# [8] = minipig 601, 48 hr post patch removal, 24 hr
# [9] = minipig 601, 72 hr post patch removal, 24 hr
# [10] = minipig 601, 96 hr post patch removal, 24 hr
# [11] = minipig 601, 120 hr post patch removal, 24 hr
# [12] = minipig 601, before patch application
# [13] = minipig 602, 2 hr post patch removal, 24 hr
# [14] = minipig 602, 24 hr post patch removal, 24 hr
# [15] = minipig 602, 48 hr post patch removal, 24 hr
# [16] = minipig 602, 72 hr post patch removal, 24 hr
# [17] = minipig 602, 96 hr post patch removal, 24 hr
# [18] = minipig 602, 120 hr post patch removal, 24 hr
# [19] = minipig 602, before patch application
# [20] = minipig 603, 2 hr post patch removal, 24 hr
# [21] = minipig 603, 24 hr post patch removal, 24 hr
# [22] = minipig 603, 48 hr post patch removal, 24 hr
# [23] = minipig 603, 72 hr post patch removal, 24 hr
# [24] = minipig 603, 96 hr post patch removal, 24 hr
# [25] = minipig 603, 120 hr post patch removal, 24 hr
# [26] = minipig 603, before patch application
compound,measurement,setting,value
CCCCC[C@H](O)CC[C@@H]1[C@H]2Cc3cccc(OCC(=O)O)c3C[C@H]2C[C@H]1O [Treprostinil],cumulative skin permeability at 72 hours,[1],high
same,Edema score,[2]; [6],0
same,Erythema score,[2]; [6],1
same,Edema score,[2]; [7],0
same,Erythema score,[2]; [7],1
same,Edema score,[2]; [8],0
same,Erythema score,[2]; [8],1
same,Edema score,[2]; [9],0
same,Erythema score,[2]; [9],0
same,Edema score,[2]; [10],0
same,Erythema score,[2]; [10],0
same,Edema score,[2]; [11],0
same,Erythema score,[2]; [11],0
same,Edema score,[2]; [12],0
same,Erythema score,[2]; [12],0
same,Edema score,[2]; [13],0
same,Erythema score,[2]; [13],1
same,Edema score,[2]; [14],0
same,Erythema score,[2]; [14],1
same,Edema score,[2]; [15],0
same,Erythema score,[2]; [15],0
same,Edema score,[2]; [16],0
same,Erythema score,[2]; [16],0
same,Edema score,[2]; [17],0
same,Erythema score,[2]; [17],0
same,Edema score,[2]; [18],0
same,Erythema score,[2]; [18],0
same,Edema score,[2]; [19],0
same,Erythema score,[2]; [19],0
same,Edema score,[2]; [20],0
same,Erythema score,[2]; [20],2
same,Edema score,[2]; [21],0
same,Erythema score,[2]; [21],2
same,Edema score,[2]; [22],0
same,Erythema score,[2]; [22],0
same,Edema score,[2]; [23],0
same,Erythema score,[2]; [23],0
same,Edema score,[2]; [24],0
same,Erythema score,[2]; [24],0
same,Edema score,[2]; [25],0
same,Erythema score,[2]; [25],0
same,Edema score,[2]; [26],0
same,Erythema score,[2]; [26],0
same,skin irritation (summary),"[2]; reservoir patch 10 mg treprostinil with isopropyl myristate and ethanol, in place 24 hr, three female minipigs",did not cause significant skin irritation
same,concentration at 72 hr,"[3]; other: transdermal (reservoir-type patch), read-out: C72 hr",2.4 to 4.9 ng/mL
same,Cmax,[3]; topical or ocular,20.8 to 27.6 ng/mL
same,Tmax,[3]; topical or ocular,6 h
same,AUC(0-t),"[3]; topical or ocular, read-out: AUC0-72",429 to 946 ng·h/mL
same,half-life,"[3]; topical or ocular, read-out: half-life (T1/2) during treatment",28 to 35 h
same,systemic half-life,"[4]; free acid, due to significant metabolism",very short
same,absolute oral bioavailability,"[4]; treprostinil as the free acid, oral",less than 10%
same,peak-to-trough ratio of plasma concentrations,[5]; administered by inhalation,large
same,PAH patients who cannot take inhaled treprostinil due to irritation to the lungs,[5]; inhalation,about 50%
